The values below come from patent US10935552B2, “Aie luminogens for visualization and treatment of cancer” (THE HONG KONG UNIVERSITY OF SCIENCE AND TECHNOLOGY, priority 2015, dated 2021).

Data set [1] concerns HeLa cells. Kind of data set: LDH cytotoxicity assay, HeLa cells. The format is cell-based, human. The protocol:
The HeLa and COS-7 cells were seeded in 96-well plate for 24 hrs. Then a different concentration of TPE-IQ-2O was added into each well. After 30 mins TPE-IQ-2O treatment in the dark, the dye was removed. Half of the cells were treated with white light irradiation for 90 mins and the rest of cells were kept in the dark. After another 24 hrs of incubation, 10 μL of 10× lysis buffer bromide was added to untreated cells as Maximum LDH Activity, while 10 μL ultrapure water was added to other wells. After incubation at 37° C. 5% CO2 for 45 mins, 50 μL of each well sample medium was transferred to a new 96-well plate, followed by addition of 50 μL reaction mixture. 50 μL stop solution were added into each well after 30 mins incubation protected from light. Then the absorbance was achieved by plate reader.

The test system of another data set is PC-9 cells. Kind of data set: Cell imaging, PC-9 cells. The format is cell-based, human. The conditions noted are these: PC-9, 200 nM, 20 and 10 mins. The method, then:
(§1) The PC-9, HepG2, and HCC827 cells were grown overnight on a 35 mm petri dish with a cover slip. The live cells were incubated with 200 nM of TPE-IQ-2O for 20 and 10 mins. In all the experiments, the cancer cells are fluorescent in solely staining.
(§2) HepG2 cells (human hepatocarcinoma cell line), PC-9 cells (human lung adenocarcinoma cell line), Hela cells (human cervical carcinoma cell line), and LX2 cells (normal cell, human hepatic stellate cell line) were stained with 200 nM DPA-IQ for 10 min. Images were taken under the same equipment settings. Scale bar: 30 μm. Excitation wavelength: 400-440 nm.

Data set [2] relates to HeLa cells. Kind of data set: Cell imaging under fluorescent microscope, HeLa cells. The format is cell-based, human. As to conditions: 200 nM. The method, then: (§3) Cell culture: HeLa cells were cultured in the MEM containing 10% FBS and 1% antibiotics (100 units/mL penicillin and 100 µg/mL streptomycin) in a 5% CO2 humidity incubator at 37° C. COS-7, MDA-MB-231, MCF-7, and MDCK-II cells were culture in the DMEM containing 10% FBS and antibiotics (100 units/mL penicillin and 100 µg/mL streptomycin) in a 5% CO2 humidity incubator at 37° C.
(§4) Cell imaging: two different kind of cells were grown overnight on a 35 mm petri dish with a cover slip. The live cells were incubated with 200 nM of TPE-IQ-2O for 1, 5, 10, and 20 mins. In a typical experiment, 2 μL of a 10 mM stock solution of TPE-IQ-2O in DMSO was diluted to 2 mL with cell culture medium, followed by further dilution to desired concentration. The cells were imaged under a fluorescent microscope (BX41 Microscope) using the same excitation and emission filters: excitation filter=400-440 nm, dichroic mirror=455 nm, and emission filter=465 nm long pass.
Two different kinds of cells were grown overnight on a 35 mm petri dish with a cover slip. The live cells were incubated with 200 nM of TPE-IQ-20 for 20, 10, 5, and 1 mins. The Hela cells were stained by TPE-IQ-2O; the COS-7 cells were stained by TPE-IQ-2O; the Hela cells and COS-7 cells were co-cultured and stained together by TPE-IQ-2O. Condition: 200 nM (Filter: both close; Channel 5; EX: 400-440 nm; Exposure time: bright field: 1000 ms Fluorescence: 1000 ms.
Two different kinds of cells were grown overnight on a 35 mm petri dish with a cover slip. The live cells were incubated with 200 nM of TPE-IQ-2O for 10 mins. The Hela cells were stained by TPE-IQ-2O; the MDCKII cells were stained by TPE-IQ-2O; the MDA-MB-231 cells and COS-7 cells were co-cultured and stained together by TPE-IQ-2O. Condition: 200 nM 10 mins (Filter: both close; Channel 5; EX: 400-440 nm; Exposure time: bright field: 1000 ms Fluorescence: 1000 ms.
as §2

A further data set concerns MDA-MB-231 cells. Kind of data set: Cell imaging under fluorescent microscope, MDA-MB-231 cells. The format is cell-based. The conditions noted are these: 200 nM. The method, then: as §3, §4
Two different kinds of cells were grown overnight on a 35 mm petri dish with a cover slip. The live cells were incubated with 200 nM of TPE-IQ-2O for 20, 10, 5, and 1 mins. […] Condition: 200 nM (Filter: both close; Channel 5; EX: 400-440 nm; Exposure time: bright field: 1000 ms Fluorescence: 1000 ms.

In the next data set the test system is HCC827 cells. Put plainly: Cell imaging, HCC827 cells. As to conditions: HCC827, 200 nM, 20 and 10 mins. The format is cell-based. The method, then:
as §1

In the next data set the test system is MCF-7 cells. Put plainly: Cell imaging under fluorescent microscope, MCF-7 cells. The conditions noted are these: 200 nM. The format is cell-based. The protocol: as §3, §4
Two different kinds of cells were grown overnight on a 35 mm petri dish with a cover slip. The live cells were incubated with 200 nM of TPE-IQ-2O for 20, 10, and 5 mins. […] Condition: 200 nM (Filter: both close; Channel 5; EX: 400-440 nm; Exposure time: bright field: 1000 ms Fluorescence: 1000 ms.

As to `CCC[n+]1cc2ccc(C(=C(c3ccc(OC)cc3)c3ccc(OC)cc3)c3ccccc3)cc2c(-c2ccccc2)c1-c1ccccc1` [TPE-IQ-2O, 6-(2,2-bis(4-methoxyphenyl)-1-phenylvinyl)-3,4-diphenyl-2-propylisoquinolin-2-ium], the LDH cytotoxicity result is recorded as “HeLa cells decreased as the concentration of TPE-IQ-2O increased” in the data set with HeLa cells [1] (white light irradiation for 90 mins) and “no obvious cytotoxicity” with HeLa cells [1] (without white light irradiation). In addition, the “Fluorescence of stained cells” value is recorded as “fluorescent” with PC-9 cells; “fluorescent” with HeLa cells [2] (HeLa stained alone, 1-20 min); “fluorescent” in the data set with MDA-MB-231 cells (MDA-MB-231 stained alone, 1-20 min); “fluorescent” in the data set on HCC827 cells; “fluorescent” with MCF-7 cells (MCF-7 stained alone, 5-20 min). In addition, the Fluorescence in co-culture entry is reported as “fluorescence only from the Hela cancer cell” in the data set with HeLa cells [2] (HeLa and COS-7 co-cultured and stained together); “fluorescence only from the Hela cancer cell” in the data set on HeLa cells [2] (HeLa and MDCK-II grown in the same environment, 10 mins); “fluorescence only from the MDA-MB-231 cancer cell” in the data set with MDA-MB-231 cells (MDA-MB-231 and COS-7 co-cultured and stained together); “fluorescence only from the MCF-7 cancer cell” with MCF-7 cells (MCF-7 and COS-7 co-cultured and stained together).
